Drawing on US20080076808A1, “SKIN COMPOSITION” (MARS INCORPORATED, priority 2003, published 2008), this text covers epidermal ceramide synthesis for four compounds.

Read-outs that look alike come from different tables or passages of the source.

The test system of assay [1] is canine keratinocytes. Nature of the assay: In vitro ceramide synthesis assay (14C-serine incorporation). The settings on record: stated as 'has been shown'; FIGS. 2, 3, 7, 8. The assay is classed as cell-based. The protocol: Canine keratinocytes were obtained via explant culture of skin samples taken from healthy adult animals (4 mm biopsy). Samples are washed and dissected in cold PBS containing antibiotics. The epidermis is dissected away from the dermis and cut into 1 mm^2 pieces. The pieces of epidermis are then placed into individual wells of a 24 well collagen-coated plastic plate and briefly allowed to dry down (60 seconds). Green's medium supplemented with 10% fetal bovine serum is then added and the explants cultured for 7-10 days until keratinocytes begin growing out of the edges of the skin. The primary skin cells are now detached from the plastic and explant tissue using trypsin and moved onto a i3T3 (irradiated fibroblast) feeder layer. Cells are expanded on the feeder layer until near confluent at which time they can be moved onto plastic alone. The primary keratinocytes can be used for assays at this point or further expanded in number as required. Keratinocytes are seeded in collagen-coated 24 well plates at a density of 5×10^4 cells per well. These cells are allowed to settle overnight and then the media changed. Cells are then left for 4 days under proliferation promoting culture conditions (in the presence of bovine pituitary extract). Following the 4 days the media is changed to one that promotes differentiation and at this stage the supplement to be tested is added (see individual experiments). Following 6 days under these conditions [^14C]-Serine is added for the ceramide assay or [^14C]-Acetate added for the total lipid assay, in both cases at 0.5 microCi per well. Cells are incubated in the presence of the radioactive markers and supplement for 2 days. At the end of the incubation period cells were harvested using trypsin and washed using PBS. Lipids were subsequently extracted using Bligh-Dyer solution and then added to 4 ml of scintillation fluid. The radioactivity was counted with a liquid scintillation spectrometer. Results for the ceramide synthesis assays are seen in FIGS. 1-6. Results for total lipid synthesis assays are seen in FIGS. 7-8. […]

For assay [2], the system named is canine keratinocytes. Particulars: stated as 'known to'; FIG. 5; cited from earlier work.

Turning to `N[C@@H](Cc1c[nH]cn1)C(=O)O` [Histidine, histidine], in assay [1], the epidermal ceramide synthesis entry was “increase”.
Same read-out and setting: in the case of `NC(=O)c1cccnc1` [Nicotinamide, nicotinamide] it was “increase”.
`O=C(O)[C@@H]1CCCN1` [Proline, proline]: in assay [1], the epidermal ceramide synthesis entry is “increase”.
Consider `Cc1ncc(CO)c(CO)c1O` [Pyridoxine, pyridoxine], for which the epidermal ceramide synthesis entry in assay [2] is “increase”.
